Results: US11723946B2, “Methods for regulating transcription of multiple genes and expression of multiple targets” (CHINA MEDICAL UNIVERSITY, priority 2014, dated 2023)

How the values were obtained:
NF-κB [1] = experiment: Whole animal bioluminescent imaging, LPS-induced NF-κB/luc transgenic mice; assay type: in vivo
From the text: Mice: The NF-κB/luc transgenic mice bearing the luciferase transgene driven by two copies of the NF-kappaB regulatory elements were mated with wild-type FVB mice to generate the hybrid NF-κB/luc transgenic offspring for the experiments. Whole animal bioluminescent imaging: 15 mice with age of 6˜8 weeks were randomly divided into three groups. The group 1 was the blank group; the group 2 was control group; and the group 3 was experimental group. The mice of the group 2 and the group 3 were administration with 100 ul of […] lipopolysaccharide (LSP) solution to induce the inflammation in the mice by intraperitoneal injection (IP injection). As the blank control, the mice of group 1 were administered with 100 μl of PBS by IP injection. After the LPS-injection for 5 minutes, the mice of the group 3 were further injected with 20 μl solution that contains 0.5 mg/Kg of the present polypeptide by IP injection. In contrast, the mice of the group 2 and the […] were injected with 20 μul of water. […] For in vivo imaging mice were anesthetized with isoflurane and injected intraperitoneally with 150 mg/kg luciferin. After 10 minutes, the mice were placed face up and imaged for 1 min with the camera set at the highest sensitivity by IVIS Imaging System-200 (Series Xenogen Hopkinton, Mass.). The photons emitted from the tissues were quantified by Living Images software (Xenogen, Hopkinton, Mass.) and were shown in FIG. 4A. In the FIG. 4A, the Y-axis shown the signal strength (photons/sec) that stands for total photons diffused from the mice.

NF-κB [2] = experiment: Ex vivo bioluminescent imaging of organs, LPS-induced NF-κB/luc transgenic mice; assay type: in vivo; settings: group 2 (LPS IP) vs group 1 (PBS blank); up-regulation
Protocol: The mice of the three groups manipulated in example 3 were abdominally injected with 150 mg/Kg luciferin. After luciferin injection for 5 minutes, the mice were sacrificed and the tissues including brain, heart, lung, liver, spleen, stomach, kidney, ovary and intestine were rapidly removed. The collected tissues were placed in the IVIS Imaging System-200 Series (Xenogen, Hopkinton, Mass.) and imaged with the same setting used for in vivo bioluminescent imaging.
In the table 2, the average of luciferin value in the mice of the group 2 was divided to average of luciferin value in the mice of the group 1 to obtain the fold change. In table 3, the average of luciferin value in the mice of the group 3 was divided to the average of luciferin value in the mice of the group 2 to obtain the fold change.

Substance: lipopolysaccharide [LPS, reference compound]
- increase of NF-κB-driven luminescent intensity (NF-κB [1]; LPS group vs blank group): approximately 10.95 fold
- average of luciferin value (NF-κB [1]; group 2: LPS IP + water, 4 hours, blank group 1 2.92×10^7): 31.97×10^7 photons/sec
- Fold change of the luciferin value, Brain (NF-κB [2]): 18.87 folds
- Fold change of the luciferin value, Heart (NF-κB [2]): 6.03 folds
- Fold change of the luciferin value, Intestine (NF-κB [2]): 55.63 folds
- Fold change of the luciferin value, Kidney (NF-κB [2]): 93.78 folds
- Fold change of the luciferin value, Liver (NF-κB [2]): 4.06 folds
- Fold change of the luciferin value, Lung (NF-κB [2]): 11.90 folds
- Fold change of the luciferin value, Ovary (NF-κB [2]): 5.35 folds
- Fold change of the luciferin value, Spleen (NF-κB [2]): 5.57 folds
- Fold change of the luciferin value, Stomach (NF-κB [2]): 4.95 folds
